The IC50 is the point on the concentration scale where inhibition reaches its midpoint. One may read the LD50 as the dose expected to kill half of the subjects tested. Lower therefore signals greater toxicity.

Read-outs that look alike come from different tables or passages of the source.

One data set has as its system B-16 melanoma. In words: B-16 melanoma, hypodermic transplant in BDF1 mice (Test 3). It is filed as in vivo, mouse (BDF1). The note with it: once a day for 5 days, vs control. How it is done:
(§1) Hypodermically transplanted to induce solid cancer were Lewis pulmonary cancer cells to BDF1 mice in an amount of 1×10^6 cells per mouse, Clon 26 large bowel cancer cells to BALB/C mice in an amount of 5×10^5 cells per mouse and a 20% homogenate of B-16 melanoma solid cancer to BDF1 mice in an amount of 0.25 ml per mouse. From the following day of the transplantation, gnidimacrin and pimelea factor P2 were administered separately once a day for 5 days. Each test group was compared in apothanasia rate with a control group. The results on gnidimacrin and pimelea factor P2 are shown in Table 3 and Table 4, respectively.

The subject of data set [1] is MKV-74 gastric cancer cells. Briefly: Inhibition of proliferation of human gastric cancer cells MKV-74 (Tests 2 and 4). It is filed as cell-based. The note with it: gastric cancer MKV-74, RMP-1640 + 10% calf serum, 37° C. How it is done: (§2) Cells of gastric cancer, pulmonary cancer, liver cancer and leukemia, which had been separated from human patients, were separately placed in portions of RMP-1640 medium containing 10% calf serum and then incubated at 37° C. for 4 days in a 5% CO2 -incubator to obtain a cell population of 10^4 /ml. To the cells of each cancer kind so cultured, stelleramacrin was added at varied concentrations, and the concentration (IC50) of each test compound at which proliferation of the human cancer cells was inhibited by 50% was deterimined.
(§3) Cells of gastric cancer, pulmonary cancer, liver cancer and leukemia, which had been separated from human patients, were separately placed on portions of RMP-1640 medium containing 10% calf serum and then incubated at 37° C. for 4 days in a 5% CO2 -incubator to obtain a cell population of 10^4 /ml. To the cells of each cancer kind so cultured, gnidimacrin or pimelea factor was added at varied concentrations, and the concentration (IC50) of the test compound at which proliferation of the human cancer cells was inhibited by 50% was determined.

Another data set has as its system HLE liver cancer cells. In words: Inhibition of proliferation of human liver cancer cells HLE (Tests 2 and 4). It counts as cell-based. The conditions noted are these: RMP-1640 + 10% calf serum, 37° C. As for the experimental part:
as §2, §3

For data set [2], the system named is K-III gastric cancer cells. Briefly: Inhibition of proliferation of human gastric cancer cells K-III (Tests 2 and 4). The conditions noted are these: RMP-1640 + 10% calf serum, 37° C. It is filed as cell-based. As for the experimental part: as §2, §3
Data set [3] concerns N-237 pulmonary cancer cells. Briefly: Inhibition of proliferation of human pulmonary cancer cells N-237 (Tests 2 and 4). The conditions noted are these: pulmonary cancer N-237, RMP-1640 + 10% calf serum, 37° C. It counts as cell-based. As for the experimental part: as §2, §3
Data set [4] deals with MKV-45 gastric cancer cells. Briefly: Inhibition of proliferation of human gastric cancer cells MKV-45 (Tests 2 and 4). It is filed as cell-based. The note with it: gastric cancer MKV-45, RMP-1640 + 10% calf serum, 37° C. How it is done:
as §2, §3

Data set [5] deals with MKU-28 gastric cancer cells. In words: Inhibition of proliferation of human gastric cancer cells MKU-28 (Tests 2 and 4). The note with it: gastric cancer MKU-28, RMP-1640 + 10% calf serum, 37° C. It is filed as cell-based. As for the experimental part: as §2, §3
Data set [6] has as its system Colon 26 large bowel cancer. In words: Colon 26 large bowel cancer, hypodermic transplant in BALB/C mice (Test 3). It is filed as in vivo, mouse (BALB/C). The note with it: once a day for 5 days, vs control. How it is done: as §1
Data set [7] relates to PC-7 pulmonary cancer cells. In words: Inhibition of proliferation of human pulmonary cancer cells PC-7 (Tests 2 and 4). It is filed as cell-based. The note with it: pulmonary cancer PC-7, RMP-1640 + 10% calf serum, 37° C. How it is done: as §2, §3
Data set [8] deals with PC-14 pulmonary cancer cells. In words: Inhibition of proliferation of human pulmonary cancer cells PC-14 (Tests 2 and 4). The conditions noted are these: pulmonary cancer PC-14, RMP-1640 + 10% calf serum, 37° C. It is filed as cell-based. As for the experimental part: as §2, §3
Data set [9] concerns Lewis pulmonary cancer cells. In words: Lewis pulmonary cancer in mice, intravenous administration. It counts as in vivo, mouse. The conditions noted are these: 0.06 mg/Kg.
The test system of the next data set is K-502 leukemia cells. In words: Inhibition of proliferation of human leukemia cells K-502 (Tests 2 and 4). It counts as cell-based. The note with it: leukemia K-502, RMP-1640 + 10% calf serum, 37° C. As for the experimental part: as §2, §3
The test system of data set [10] is H-69 pulmonary cancer cells. In words: Inhibition of proliferation of human pulmonary cancer cells H-69 (Tests 2 and 4). It is filed as cell-based. The note with it: pulmonary cancer H-69, RMP-1640 + 10% calf serum, 37° C. How it is done: as §2, §3
Data set [11] has as its system solid cancer such as gastric cancer, pulmonary cancer, liver cancer. Briefly: Inhibiting action against solid cancer (summary statement). The note with it: liver cancer or the like.
The test system of the next data set is Meth A fibrosarcoma. In words: Meth A fibrosarcoma solid cancer in male BALB/c mice, injection into the cancer (Test 5). It is filed as in vivo, mouse (BALB/c). The note with it: 0.001 mg/Kg injected into solid cancer once a day for 5 days, 21st day. How it is done:
Using laboratory animals, effects of gnidimacrin on solid cancer were studied. First, intradermally inoculated to male BALB/c mice (each group consisting of 6 mice, each having a weight of 17-21 g) was 0.01 ml of RPMI 1640 solution which contained 10% fetal serum and 1×10^5 cells/ml of Meth A fibrosarcoma. Seven days after the inoculation, solid cancer was formed. Into the solid cancer, gnidimacrin which had been dissolved in physiological saline containing 0.5% CMC, was administered at 0.001 mg/Kg by injection. That administration was conducted once a day for 5 days. On the 21st day from the inoculation of Meth A fibrosarcoma, the cancer was cut out and its weight was compared with that of a control group not administered with gnidimacrin. […] Namely, gnidimacrin inhibited the proliferation of the solid cancer by 81%.

The subject of data set [12] is Lewis pulmonary cancer cells. Briefly: Lewis pulmonary cancer, hypodermic transplant in BDF1 mice (Test 3). It counts as in vivo, mouse (BDF1). The conditions noted are these: once a day for 5 days, vs control. How it is done: as §1
Data set [13] relates to LU-99 pulmonary cancer cells. Briefly: Inhibition of proliferation of human pulmonary cancer cells LU-99 (Tests 2 and 4). It counts as cell-based. The note with it: pulmonary cancer LU-99, RMP-1640 + 10% calf serum, 37° C. How it is done: as §2, §3
Data set [14] concerns mouse leukemia cell P-388. Briefly: P-388 mouse leukemia, intraperitoneal transplant in BDF1 mice, survival (Test 1). The conditions noted are these: 1 mg/kg, once a day for 5 days. It is filed as in vivo. From the text: The mouse leukemia cell P-388 was intraperitoneally transplanted to BDF1 mice in an amount of 1×10^6 cells per mouse. From the following day, each test drug was intraperitoneally administered to the mice once a day for 5 days. Each test group was compared in the number of survival days with a control group to determine an apothanasia rate.

The next data set can be described thus: Acute toxicity (LD50). The conditions noted are these: in vivo; species and route not given.

Regarding `C=C(C)[C@@]12C[C@@H](COC(=O)c3ccccc3)[C@@]34OC5(O[C@@H]1[C@@H]3[C@@H]1O[C@]1(CO)[C@@H](O)[C@@]1(O)[C@H]4[C@H]([C@H](C)[C@@H]1OC(=O)c1ccccc1)[C@H](C)CCCCCC[C@H]5O)O2` (single isomer, unassigned) [Gnidimacrin, gnidimacrin], the Apothanasia rate with B-16 melanoma (0.02 mg/kg) stood at 49.2%; in data set [6] (0.01 mg/kg) it was 26.8%; in [9], 47.8%; in data set [12] (0.02 mg/kg) it was 40.0%. Besides, the IC50 was more than 1 mg/L in data set [1] (Homo sapiens, read-out: IC50); 2 mg/L in the data set on HLE liver cancer cells (Homo sapiens, read-out: IC50); 0.0006 mg/L in [2] (Homo sapiens, read-out: IC50); 0.2 mg/L in [3] (Homo sapiens, read-out: IC50); 0.0001 mg/L in [4] (Homo sapiens, read-out: IC50); 0.006 mg/L in data set [5] (Homo sapiens, read-out: IC50). Besides, the IC50 is 0.5 mg/L in [7] (Homo sapiens, read-out: IC50); 0.85 mg/L in data set [8] (Homo sapiens, read-out: IC50); 0.0025 mg/L with K-502 leukemia cells (Homo sapiens, read-out: IC50); 0.6 mg/L in data set [10] (Homo sapiens, read-out: IC50); 1 mg/L in data set [13] (Homo sapiens, read-out: IC50). Also, the “inhibiting action against solid cancer” value in data set [11] is listed as “strong inhibiting action”. The compound also showed an average cancer weight with Meth A fibrosarcoma (control group 2.1 g) of 0.4 g. Also, the “inhibition of the proliferation of the solid cancer” value with Meth A fibrosarcoma (vs control) came out at 81%.
For `C=C(C)C12CC(COC(=O)c3ccccc3)C34OC5(OC1C3C1OC1(CO)C(O)C1(O)C(O)C(C)C(C(C)CCCCCCC5O)C14)O2` (single isomer, unassigned) [Stelleramacrin A], the IC50 in data set [1] (Homo sapiens, read-out: IC50) was more than 10 mg/L; in the data set on HLE liver cancer cells (Homo sapiens, read-out: IC50) it was more than 10 mg/L; in data set [2] (Homo sapiens, read-out: IC50), 0.1 mg/L; in data set [3] (Homo sapiens, read-out: IC50), 5.3 mg/L; in [4] (Homo sapiens, read-out: IC50), 0.8 mg/L; in [5] (Homo sapiens, read-out: IC50), 0.2 mg/L. The IC50 was 5.1 mg/L in [7] (Homo sapiens, read-out: IC50); 8.4 mg/L in data set [8] (Homo sapiens, read-out: IC50); 10 mg/L with K-502 leukemia cells (Homo sapiens, read-out: IC50); 10.2 mg/L in data set [10] (Homo sapiens, read-out: IC50); more than 10 mg/L in data set [13] (Homo sapiens, read-out: IC50). For the same compound, in [14] (control group 8.08 days), the “Average number of survival days” value amounted to 13.83 days. In addition, the Apothanasia rate in data set [14] (survival days vs control) worked out at 71%. The same compound gave an LD50 in the data set “Acute toxicity (LD50)” of 5 mg/kg.
For `C=C(C)[C@]12C[C@@H](C)[C@@]34OC5(CCCCCCC[C@H](C)[C@H]6[C@H](C)[C@H](OC(=O)c7ccccc7)[C@@](O)([C@H](O)[C@@]7(CO)O[C@H]7[C@H]3[C@H]1O5)[C@@H]64)O2` [Pimelea factor P2, pimelea factor P2], the Apothanasia rate in the data set on B-16 melanoma (0.1 mg/kg) came out at 41.8%; in data set [6] (0.05 mg/kg) it was 18.5%; in data set [12] (0.1 mg/kg) it was 35.2%. The IC50 was found to be 10 mg/L in data set [1]; 10 mg/L in the data set with HLE liver cancer cells; 0.003 mg/L in data set [2]; 3.8 mg/L in data set [3]; 0.005 mg/L in [4]; 0.01 mg/L in data set [5]. Also, the IC50 in data set [7] was 1.7 mg/L; in [8] it was 3.2 mg/L; in the data set with K-502 leukemia cells it was 0.3 mg/L; in data set [10] it was 7 mg/L; in [13], 10 mg/L. Also, the “inhibiting action against solid cancer” value in data set [11] was “strong inhibiting action”.

The values are drawn from patent publication US5616609A, “Carcinostatic compound and production thereof” (priority 1991, dated 1997).
